Data taken from patent US12643867B2, “Compositions and uses thereof” (University of Virginia Patent Foundation, priority 2017, dated 2026).

Biological target: T1, DGKK (Diacylglycerol kinase kappa) (Homo sapiens, UniProt Q5KSL6)
T1 construct: host or cells: SILAC HEK293T
T1 sequence (Q5KSL6 1-1271): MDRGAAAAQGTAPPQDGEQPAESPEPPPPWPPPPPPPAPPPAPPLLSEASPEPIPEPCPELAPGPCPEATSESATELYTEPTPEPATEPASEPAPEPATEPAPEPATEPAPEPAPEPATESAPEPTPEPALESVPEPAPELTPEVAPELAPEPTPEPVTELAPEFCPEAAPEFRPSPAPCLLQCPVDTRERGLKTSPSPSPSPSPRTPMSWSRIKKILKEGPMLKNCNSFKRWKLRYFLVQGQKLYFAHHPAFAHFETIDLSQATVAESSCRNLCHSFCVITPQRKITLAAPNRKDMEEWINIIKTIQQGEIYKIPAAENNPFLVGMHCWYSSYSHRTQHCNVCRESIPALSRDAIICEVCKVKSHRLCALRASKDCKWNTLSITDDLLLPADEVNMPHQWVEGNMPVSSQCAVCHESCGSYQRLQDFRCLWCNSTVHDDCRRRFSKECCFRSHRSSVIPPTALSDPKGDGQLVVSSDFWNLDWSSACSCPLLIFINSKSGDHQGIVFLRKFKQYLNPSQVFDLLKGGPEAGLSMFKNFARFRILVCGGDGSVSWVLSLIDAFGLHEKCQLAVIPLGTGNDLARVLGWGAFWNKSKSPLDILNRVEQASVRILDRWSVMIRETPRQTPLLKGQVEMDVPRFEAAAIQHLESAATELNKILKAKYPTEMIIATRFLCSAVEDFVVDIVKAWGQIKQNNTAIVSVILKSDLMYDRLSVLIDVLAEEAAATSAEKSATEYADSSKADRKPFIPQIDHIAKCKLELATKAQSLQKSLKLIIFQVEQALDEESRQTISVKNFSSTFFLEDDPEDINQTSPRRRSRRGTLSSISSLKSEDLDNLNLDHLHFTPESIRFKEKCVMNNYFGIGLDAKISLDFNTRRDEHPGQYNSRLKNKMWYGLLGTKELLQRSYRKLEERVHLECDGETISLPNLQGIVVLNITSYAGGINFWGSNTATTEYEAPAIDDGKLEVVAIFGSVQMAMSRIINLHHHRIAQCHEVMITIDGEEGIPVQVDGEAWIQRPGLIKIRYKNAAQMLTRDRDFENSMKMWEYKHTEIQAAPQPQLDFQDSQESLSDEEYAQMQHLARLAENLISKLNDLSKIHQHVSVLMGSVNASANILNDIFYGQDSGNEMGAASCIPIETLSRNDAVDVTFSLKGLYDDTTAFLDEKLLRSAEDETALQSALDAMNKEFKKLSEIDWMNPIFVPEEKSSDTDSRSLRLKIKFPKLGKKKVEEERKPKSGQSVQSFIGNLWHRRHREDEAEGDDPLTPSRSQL
Assay: SILAC LC-MS ATP acyl phosphate probe competition, recombinant DGK-HEK293T lysates
Format: binding
Details: site DAGKa (K892); ATP 1 mM; Ketanserin, Ritanserin 100 μM; RF001 1 mM
Excerpt: Recombinant DGK proteins were produced by transient transfection of HEK293T cells with recombinant DNA. pDONR223-DGKK was a gift from William Hahn & David Root (Addgene plasmid #23487). pCSF107mT-GATEWAY-3′-FLAG was a gift from Todd Stukenberg (Addgene plasmid #67619). pCSF107mT-DGKK-FLAG construct was generated by recombination of the Addgene plasmids using the Gateway cloning system (Invitrogen). All other vectors were gifted to Dr. Kevin Lynch (University of Virginia, School of Medicine) by Dr. Kaoru Goto (Yamagata University, School of Medicine) and Dr. Fumio Sakane (Chiba University) and were kindly shared with us: pcDNA3-FLAG-DGKA (rat), pCMV-Tag2B-FLAG-DGKQ (human), pcDNA3-DGKE-3×Flag (human), and pCMV-SPORT6-HA-DGKZ (human). HEK293T cells were plated at a concentration of 400,000 cells in complete DMEM and grown to 50-60% confluency. A polyethyleneimine (PEI) stock solution was prepared (1 mg/mL, pH 7.4) and filter sterilized. Serum-free DMEM (600 μL) was mixed gently with 2.6 μg DNA and 20 μL of sterile PEI (1 mg/mL, pH 7.4) in a sterile microfuge tube. Mixtures were incubated for 30 min at 25° C. The mixture was then added drop-wise to each 10 cm^2 plate, rocked back and forth to mix, and placed back in the incubator. Cell pellets were harvested after two full days of growth, snap-frozen in liquid N2, and stored at −80° C. until use. Recombinant proteins were produced by transient transfection in SILAC HEK293T cells using the procedure described above, except that cells were plated at a concentration of 1×10^6 cells per 10 cm^2 plate and grown to ˜70% confluency prior to introducing transfection mixture.
Proteomes were diluted to 2 mg/ml in kinase buffer. The light and heavy proteomes (0.5 mg, 250 μL total reaction volume) were pre-treated with vehicle or compound, respectively (5 μL, DMSO (light) or 50× stock in DMSO (heavy)), mixed gently, and incubated at 25° C. for 30 min. […] After incubation, matched light and heavy proteomes were transferred and mixed in a 1:1 ratio in a two-dram vial containing 4:1:3 MeOH/CHCl3/H2O (2 mL MeOH, 500 AL CHCl3, 1.5 mL H2O) for extraction of proteins to remove excess probe, quickly vortexed, and centrifuged at 1,400×g for 3 min to pellet protein. Organic and aqueous layers were removed using a Pasteur pipette, and the protein pellet was transferred to a screw-top tube in 600 μL MeOH. A second extraction was performed by adding CHCl3 (150 μL) and H2O (600 μL) to each sample, vortexed, and centrifuged at 1,400×g for 3 min to pellet protein. Organic and aqueous layers were removed by pipetting. MeOH added to pellet (600 μL) and pellets were re-suspended by sonication (3×1 sec pulse, 20% amplitude) for a final extraction. Samples were then centrifuged at 17,000×g for 5 min to pellet protein and MeOH was removed by pipetting. The pellets were re-suspended in 10 M urea/25 mM ammonium bicarbonate ([…]), brought to a final volume of 1 mL with 25 mM ammonium bicarbonate, reduced with 10 mM DTT for 15 min at 65° C. allowed to cool, and then alkylated with 40 mM iodoacetamide for 30 min at 25° C. in the dark. To desalt the samples, each was transferred to a two-dram glass vial, and to the vial 4:1:2 MeOH/CHCl3/H2O (2 mL MeOH, 500 AL CHCl3, 1 mL H2O) was added. The vials were vortexed quickly, spun at 1.400×g for 3 min to pellet protein, and aqueous and organic layers were removed using a Pasteur pipette. The resulting protein pellet was transferred to a screw-top tube in 600 μL MeOH, and then CHCl3 (150 μL) and HO (600 μL) were added to extract protein a second time. The samples were vortexed quickly, centrifuged at 1,400×g to pellet protein, and the aqueous and organic layers were removed by pipetting. Resulting protein pellet was suspended in MeOH (600 μL) via sonication (3×1 sec pulse, 20% amplitude), centrifuged at 17,000×g for 5 min to pellet protein, and MeOH removed by pipetting. […]

Compound	SILAC ratio, DGKK DAGKa probe-modified peptide
O=C(c1ccc(F)cc1)C1CCN(CCn2c(=O)[nH]c3ccccc3c2=O)CC1 [Ketanserin]	0.2
Cc1nc2sccn2c(=O)c1CCN1CCC(=C(c2ccc(F)cc2)c2ccc(F)cc2)CC1 [Ritanserin]	0.7
Fc1ccc(C(=C2CCNCC2)c2ccc(F)cc2)cc1 [RF001, 4-(Bis(4-fluorophenyl)methylene) piperidine]	1.6
